Assay results published in patent US20190307843A1, “SINGLE DOSE METHODS FOR PREVENTING AND TREATING FUNGAL INFECTIONS” (Cidara Therapeutics, Inc., priority 2016, published 2019).
Read-outs that look alike come from different tables or passages of the source. Starred links: 1 amine or outer side, 2 acyl side, 3 side chain; linkers in the order of their positions; H or OH if unused. Positions of bridges follow the written chain, without caps; N, C: chain ends. Non-standard residues stand in square brackets, D forms with d. Residues, ends and D or L forms follow the SMILES beside them. *: point of attachment. Orn(4R-OH,5R-OCH2CH2NMe3+) = C[N+](C)(C)CCO[C@@H](N[*:3])[C@H](O)C[C@H](N[*:1])C(=O)[*:2]; pTerphenylCO(4''-OnC5H11) = CCCCCOc1ccc(-c2ccc(-c3ccc(C(=O)*)cc3)cc2)cc1; hTyr(3S-OH,4S-OH) = N[C@H](C(=O)O)[C@H](O)[C@@H](O)c1ccc(O)cc1; Pro(3S-OH,4S-Me) = C[C@H]1CN[C@H](C(=O)O)[C@H]1O; Hyp = O=C(O)[C@@H]1C[C@@H](O)CN1

Columns and labels:
[1] = test system: C. albicans strain 529L; assay: Rat model of vulvovaginal candidiasis, vaginal lavage and tissue burden; assay type: in vivo, Candida albicans
[2] = assay type: in vivo, rat; settings: all treatment dose and duration
Experimental: The rats were monitored at a frequency appropriate for their clinical condition. Rat weights were recorded at least once daily to ensure animals remained within ethical limits.

[3] = test system: Candida auris strains; assay: Candida auris antifungal susceptibility testing (CLSI M27-A3), 38 strains; assay type: cell-based; settings: Candidozyma auris, 24 h, 24 h, read-out: MIC
[4] = 5 mg/kg SC Dosed Once, lavage Day 1 post infection, pre-treatment
[5] = 5 mg/kg SC Dosed Once, lavage Day 2 post infection
[6] = 5 mg/kg SC Dosed Once, lavage Day 3 post infection
[7] = 5 mg/kg SC Dosed Once, lavage Day 5 post infection
[8] = 5 mg/kg SC Dosed Once, lavage Day 7 post infection
[9] = 5 mg/kg SC Dosed Once, lavage Day 9 post infection
[10] = 5 mg/kg SC Dosed Once, terminal vaginal tissue Day +9 post infection
[11] = 5 mg/kg SC Dosed Twice, lavage Day 1 post infection, pre-treatment
[12] = 5 mg/kg SC Dosed Twice, lavage Day 2 post infection
[13] = 5 mg/kg SC Dosed Twice, lavage Day 3 post infection
[14] = 5 mg/kg SC Dosed Twice, lavage Day 5 post infection
[15] = 5 mg/kg SC Dosed Twice, lavage Day 7 post infection
[16] = 5 mg/kg SC Dosed Twice, lavage Day 9 post infection
[17] = 5 mg/kg SC Dosed Twice, terminal vaginal tissue Day +9 post infection
[18] = 10 mg/kg SC Dosed Once, lavage Day 1 post infection, pre-treatment
[19] = 10 mg/kg SC Dosed Once, lavage Day 2 post infection
[20] = 10 mg/kg SC Dosed Once, lavage Day 3 post infection
[21] = 10 mg/kg SC Dosed Once, lavage Day 5 post infection
[22] = 10 mg/kg SC Dosed Once, lavage Day 7 post infection
[23] = 10 mg/kg SC Dosed Once, lavage Day 9 post infection
[24] = 10 mg/kg SC Dosed Once, terminal vaginal tissue Day +9 post infection

With CCCCCOc1ccc(-c2ccc(-c3ccc(C(=O)N[C@H]4C[C@@H](O)[C@@H](OCC[N+](C)(C)C)NC(=O)[C@@H]5[C@@H](O)[C@@H](C)CN5C(=O)[C@H]([C@@H](C)O)NC(=O)[C@H]([C@H](O)[C@@H](O)c5ccc(O)cc5)NC(=O)[C@@H]5C[C@@H](O)CN5C(=O)[C@H]([C@@H](C)O)NC4=O)cc3)cc2)cc1 [CD101] ({pTerphenylCO(4''-OnC5H11)}-[Orn(4R-OH,5R-OCH2CH2NMe3+)]T[Hyp][hTyr(3S-OH,4S-OH)]T[Pro(3S-OH,4S-Me)]; lactam 1-C) the “Group Geometric mean” value [1, 4] was 9.11 × 10^2 CFU/mL, the “Log Group Geometric mean” value [1, 4] was 2.96 CFU/mL and the “Log reduction from vehicle control” value [1, 4] was −0.52 CFU/mL. The “Group Geometric mean” value [1, 5] was 3.34 × 10^2 CFU/mL, the “Log Group Geometric mean” value [1, 5] was 2.52 CFU/mL and the “Log reduction from vehicle control” value [1, 5] was 1.17 CFU/mL. The “Group Geometric mean” value [1, 6] was 1.21 × 10^2 CFU/mL, the “Log Group Geometric mean” value [1, 6] was 2.08 CFU/mL and the “Log reduction from vehicle control” value [1, 6] was 1.49 CFU/mL. For the same compound, the “Group Geometric mean” value [1, 7] was 1.70 × 10^3 CFU/mL, the “Log Group Geometric mean” value [1, 7] was 3.23 CFU/mL and the “Log reduction from vehicle control” value [1, 7] was 0.99 CFU/mL. The “Group Geometric mean” value [1, 8] was 4.56 × 10^3 CFU/mL, the “Log Group Geometric mean” value [1, 8] was 3.66 CFU/mL and the “Log reduction from vehicle control” value [1, 8] was 0.52 CFU/mL. The “Group Geometric mean” value [1, 9] was 4.58 × 10^3 CFU/mL, the “Log Group Geometric mean” value [1, 9] was 3.66 CFU/mL and the “Log reduction from vehicle control” value [1, 9] was 0.64 CFU/mL. For the same compound, the “Group Geometric mean” value [1, 10] was 1.37 × 10^5 CFU/g, the “Log Group Geometric mean” value [1, 10] was 5.14 CFU/g and the “Group Geometric mean” value [1, 11] was 1.83 × 10^3 CFU/mL. For the same compound, the “Log Group Geometric mean” value [1, 11] was 3.26 CFU/mL, the “Log reduction from vehicle control” value [1, 11] was −0.83 CFU/mL and the “Group Geometric mean” value [1, 12] was 2.56 × 10^2 CFU/mL. For the same compound, the “Log Group Geometric mean” value [1, 12] was 2.41 CFU/mL, the “Log reduction from vehicle control” value [1, 12] was 1.29 CFU/mL and the “Group Geometric mean” value [1, 13] was 1.95 × 10^2 CFU/mL. For the same compound, the “Log Group Geometric mean” value [1, 13] was 2.29 CFU/mL, the “Log reduction from vehicle control” value [1, 13] was 1.28 CFU/mL and the “Group Geometric mean” value [1, 14] was 1.73 × 10^3 CFU/mL. The “Log Group Geometric mean” value [1, 14] was 3.24 CFU/mL, the “Log reduction from vehicle control” value [1, 14] was 0.98 CFU/mL and the “Group Geometric mean” value [1, 15] was 6.47 × 10^2 CFU/mL. The “Log Group Geometric mean” value [1, 15] was 2.81 CFU/mL, the “Log reduction from vehicle control” value [1, 15] was 1.37 CFU/mL and the “Group Geometric mean” value [1, 16] was 1.28 × 10^3 CFU/mL. For the same compound, the “Log Group Geometric mean” value [1, 16] was 3.11 CFU/mL, the “Log reduction from vehicle control” value [1, 16] was 1.19 CFU/mL and the “Group Geometric mean” value [1, 17] was 4.00 × 10^4 CFU/g. For the same compound, the “Log Group Geometric mean” value [1, 17] was 4.60 CFU/g, the “Group Geometric mean” value [1, 18] was 3.68 × 10^2 CFU/mL and the “Log Group Geometric mean” value [1, 18] was 2.57 CFU/mL. For the same compound, the “Log reduction from vehicle control” value [1, 18] was −0.13 CFU/mL, the “Group Geometric mean” value [1, 19] was 2.48 × 10^2 CFU/mL and the “Log Group Geometric mean” value [1, 19] was 2.39 CFU/mL. The “Log reduction from vehicle control” value [1, 19] was 1.30 CFU/mL, the “Group Geometric mean” value [1, 20] was 23.2 CFU/mL and the “Log Group Geometric mean” value [1, 20] was 1.37 CFU/mL. The “Log reduction from vehicle control” value [1, 20] was 2.21 CFU/mL, the “Group Geometric mean” value [1, 21] was 1.73 CFU/mL and the “Log Group Geometric mean” value [1, 21] was 0.24 CFU/mL. For the same compound, the “Group Geometric mean” value [1, 22] was 2.59 CFU/mL, the “Log Group Geometric mean” value [1, 22] was 0.41 CFU/mL and the “Log reduction from vehicle control” value [1, 22] was 3.77 CFU/mL. The “Group Geometric mean” value [1, 23] was 2.75 CFU/mL, the “Log Group Geometric mean” value [1, 23] was 0.44 CFU/mL and the “Log reduction from vehicle control” value [1, 23] was 3.86 CFU/mL. The “Group Geometric mean” value [1, 24] was 5.52 CFU/g, the “Log Group Geometric mean” value [1, 24] was 0.74 CFU/g and the “Log reduction from vehicle control” value [1, 24] was 4.75 CFU/g. For the same compound, the burden reduction ([1]; CD101 5 mg/kg once or twice, lavage Day 5 post infection) was “about 1 Log10 CFU/m”, the “rats having burden below the limit of detection” value ([1]; CD101 10 mg/kg dosed once, lavage Day 5 post infection) was 5/6 and the “rats with burdens below the levels of detection” value ([1]; CD101 10 mg/kg dosed once, terminal vaginal tissue Day 9) was 5/6. The reduction in burden ([1]; all doses of CD101, lavage Day 2 post infection) was “about 1.3 Log10 CFU/mL”, the tolerability [2] was “well tolerated with no adverse events observed” and the MIC ([3]; strain 1 VPCI 669/P/12) was 0.5 µg/mL. It also gave an MIC ([3]; strain 2 VCPI 671/P/12) of 0.5 µg/mL, an MIC ([3]; strain 3 VCPI 674/P/12) of 0.25 µg/mL and an MIC ([3]; strain 4 VCPI 683/P/12) of 0.5 µg/mL. It also gave an MIC ([3]; strain 5 VCPI 692/P/12) of 0.5 µg/mL, an MIC ([3]; strain 6 VCPI 712/P/12) of 0.25 µg/mL and an MIC ([3]; strain 7 VCPI 471/P/13) of 0.5 µg/mL. The MIC ([3]; strain 8 VCPI 475/P/13) was 0.5 µg/mL, the MIC ([3]; strain 9 VCPI 478/P/13) was 0.25 µg/mL and the MIC ([3]; strain 10 VCPI 479/P/13) was 0.25 µg/mL. The MIC ([3]; strain 11 VCPI 480/P/13) was 0.25 µg/mL.
